# Laboratory results from patent US20220330549A1, “USE OF N-BENZYLBENZAMIDE-BASED COMPOUND AS HERBICIDE” (Northwest A&F University, priority 2020, published 2022).
# What was measured:
# Type in all cases: in vivo
# [1] = system: Barnyard grass; assay: Herbicidal activity test for indoor pre-emergence soil treatment; parameters: key: level 1-9; higher = more weed remaining vs blank control; settings: 150 g a.i./ha, visual inspection 21 days after treatment
# Outline: (§1)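 Pre-emergence test following NY/T 1155.3-2006: weed seeds were sown in moistened neutral sandy loam (≤2% organic matter) and covered with 0.5–2.0 cm of soil. After 24 h, the soil was sprayed with a 10% EC diluted in water at 150 g(a.i.)/ha. Damage was scored visually on a 1–9 scale at 21 days.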
# [2] = system: Piemarker; assay: as above; parameters: key: level 1-9; higher = more weed remaining vs blank control; settings: 150 g a.i./ha, visual inspection 21 days after treatment
# Outline: as §1
# [3] = system: green bristlegrass; assay: as above; parameters: key: level 1-9; higher = more weed remaining vs blank control; settings: 150 g a.i./ha, visual inspection 21 days after treatment
# Outline: as §1
# [4] = system: Amaranthus retroflexus; assay: as above; parameters: key: 1-9 levels; higher = more weed remaining vs blank control; settings: 150 g a.i./ha, visual inspection 21 days after treatment
# Outline: as §1
# [5] = system: Digitaria sanguinalis; assay: as above; parameters: key: 1-9 levels; higher = more weed remaining vs blank control; settings: 150 g a.i./ha, visual inspection 21 days after treatment
# Outline: as §1
# [6] = system: Humulus scandens; assay: as above; settings: 150 g a.i./ha, visual inspection 21 days after treatment
# Outline: as §1
# [7] = system: Amaranthus retroflexus; assay: Herbicidal activity test for indoor post-emergence spraying on stems and leaves; parameters: key: grade level by weed remaining vs blank control, e.g. 5 = 10.1-15%; settings: 150 g a.i./ha, visual inspection 21 days after treatment
# Outline: (§2)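 Greenhouse-grown weeds, post-emergence foliar spray (NY/T 1155.4-2006 method); visual scoring at 21 d post-treatment as levels vs. untreated blank control (e.g., level 5 = 10.1–15%, level 8 = 35.1–67.5% of control weed).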
# [8] = system: Barnyard grass; assay: as above; parameters: key: grade level by weed remaining vs blank control, e.g. 5 = 10.1-15%; settings: 150 g a.i./ha, visual inspection 21 days after treatment
# Outline: as §2
# [9] = system: Digitaria sanguinalis; assay: as above; parameters: key: grade level by weed remaining vs blank control, e.g. 5 = 10.1-15%; settings: 150 g a.i./ha, visual inspection 21 days after treatment
# Outline: as §2
# [10] = system: Humulus scandens; assay: as above; parameters: key: grade level by weed remaining vs blank control, e.g. 5 = 10.1-15%; settings: 150 g a.i./ha, visual inspection 21 days after treatment
# Outline: as §2
# [11] = system: Piemarker; assay: as above; parameters: key: grade level by weed remaining vs blank control, e.g. 5 = 10.1-15%; settings: 150 g a.i./ha, visual inspection 21 days after treatment
# Outline: as §2
# [12] = system: green bristlegrass; assay: as above; parameters: key: grade level by weed remaining vs blank control, e.g. 5 = 10.1-15%; settings: 150 g a.i./ha, visual inspection 21 days after treatment
# Outline: as §2
# [13] = system: Broadleaf weed; assay: Post-emergence herbicidal activity test in a paddy field; parameters: key: level scale; higher level = more weed left vs blank control; settings: 150 g a.i./ha (penoxsulam control 250 g(a.i.)/h)
# Outline: (§3)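 Efficacy was visually estimated 15 and 30 days after spraying, grading weed coverage relative to an untreated neighbouring plot (level 2 = 0 to 2.5%, level 9 = 67.6 to 100%). Treatments were 150 g(a.i.)/ha from 10% emulsifiable concentrates applied at the 4-5 leaf rice stage, four repeats of 50 m^2 each.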
# [14] = system: Cyperaceae; assay: as above; parameters: key: level scale; higher level = more weed left vs blank control; settings: 150 g a.i./ha (penoxsulam control 250 g(a.i.)/h)
# Outline: as §3
# [15] = system: Gramineae; assay: as above; parameters: key: level scale; higher level = more weed left vs blank control; settings: 150 g a.i./ha (penoxsulam control 250 g(a.i.)/h)
# Outline: as §3
# [16] = system: Acalypha australis; assay: Field test for weed control in a corn field
# Outline: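 Herbicidal activity against weeds was assessed in corn plots by the GB/T 17980.42-2000 method. Corn at the 2–5 leaf stage received water sprays of 10% emulsifiable concentrates at 150 g(a.i.)/ha, four repeats per treatment over 20 m^2. A 25% mesotrione oil dispersion was the reference. Damage symptoms and severity were rated on levels 1-9 relative to weeds in the blank control area.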
# [17] = system: Amaranthus retroflexus; assay: Field test for weed control in a corn field
# Outline: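 Post-emergence control of Amaranthus retroflexus was assessed in corn plots using the GB/T 17980.42-2000 method. Emulsifiable concentrates (10%) in water were applied by spraying at the 2- to 5-leaf crop stage on 20 m^2 plots, four replicates each, alongside a mesotrione 25% oil dispersion reference. Herbicidal activity was scored on 1-9 levels by weed amount relative to blank control areas.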
# [18] = system: Barnyard grass; assay: Field test for weed control in a corn field
# Outline: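 Herbicidal activity against barnyard grass was assessed in corn field plots of 20 m^2, with four replicates per treatment. Compounds were applied as water-diluted 10% emulsifiable concentrates at 150 g(a.i.)/ha at the 2-5 leaf corn stage, with 25% mesotrione oil dispersion as the reference agent. Damage was scored on a 1-9 scale against untreated blank plots.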
# [19] = system: Chenopodium album; assay: Field test for weed control in a corn field
# Outline: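 Field weed-control testing in corn, run per GB/T 17980.42-2000, scored Chenopodium album on a 1-9 level scale, where each level matches a percentage range of weed remaining relative to the blank control area. Sprays of 10% emulsifiable concentrates in water delivered 150 g(a.i.)/ha at the corn 2-leaf to 5-leaf stage on 20 m^2 plots, four replicates each. Mesotrione 25% oil dispersion served as reference.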
# [20] = system: Convolvulus arvensis; assay: Field test for weed control in a corn field
# Outline: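 Post-emergence herbicidal activity on Convolvulus arvensis was scored in a corn field on a 1-9 scale, based on symptoms and damage severity. Each level corresponds to the weed remaining as a percentage of the blank control area. Sprays of 10% emulsifiable concentrate at 150 g(a.i.)/ha went on at the corn 2–5 leaf stage, with four replicates of 20 m^2 per treatment.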
# [21] = system: Digitaria sanguinalis; assay: Field test for weed control in a corn field
# Outline: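 Field trial in a corn field following GB/T 17980.42-2000. Test compounds were formulated as 10% emulsifiable concentrates, diluted in water and sprayed post-emergence at 150 g(a.i.)/ha when corn had 2 to 5 leaves, with 4 replicates on 20 m^2 plots. Control of Digitaria sanguinalis was scored on a 1-9 scale based on weed damage relative to the untreated blank area.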
# [22] = system: Portulaca oleracea; assay: Field test for weed control in a corn field
# Outline: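 Post-emergence weed control was evaluated in a corn field by the GB/T 17980.42-2000 method. Emulsifiable concentrates (10%) in water were applied as sprays at 150 g(a.i.)/ha at the 2-5 leaf corn stage, in four replicate 20 m^2 plots. A 25% mesotrione oil dispersion served as control agent. Effects were graded 1-9 relative to weed remaining in blank control areas.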
# [23] = system: Solanum nigrum; assay: Field test for weed control in a corn field
# Outline: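 In a corn field trial based on GB/T 17980.42-2000, 10% emulsifiable concentrates diluted in water were sprayed at 150 g(a.i.)/ha at the 2 to 5 leaf stage of corn. Each treatment used 20 m^2 plots and was repeated 4 times, with 25% mesotrione oil dispersion as the reference agent. Solanum nigrum damage was scored on a 1-9 scale against blank control plots.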
# [24] = system: goosegrass; assay: Field test for weed control in a corn field
# Outline: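 In this field trial in corn, run per GB/T 17980.42-2000, test agents prepared as 10% emulsifiable concentrates were applied in water as sprays at 150 g(a.i.)/ha at the 2- to 5-leaf corn stage. Each treatment covered 20 m^2 and was repeated 4 times. Goosegrass control was scored 1-9 relative to weed remaining in blank control areas.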
# [25] = system: green bristlegrass; assay: Field test for weed control in a corn field
# Outline: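 Herbicidal activity against green bristlegrass was assessed in corn field plots of 20 m^2 per GB/T 17980.42-2000. Test agents, formulated as 10% emulsifiable concentrates, were applied in water at 150 g(a.i.)/ha at the corn 2 leaves to 5 leaves stage, repeated 4 times. A 25% mesotrione oil dispersion served as the control agent, and weed damage was rated on levels 1-9.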
# [26] = system: nutgrass flatsedge; assay: Field test for weed control in a corn field
# Outline: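 Herbicidal effect on nutgrass flatsedge was measured in a field planted with corn, using the GB/T 17980.42-2000 method. Emulsifiable concentrates (10%) in water were sprayed at 150 g(a.i.)/ha during the 2-leaf to 5-leaf corn stage, on 20 m^2 plots repeated 4 times. 25% mesotrione oil dispersion was the control agent. Activity was scored from 1 to 9 by weed remaining relative to blank control plots.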
# [27] = 150 g(a.i.)/ha, 21 days after treatments
# [28] = 150 g a.i./ha, 30 days after treatment
compound,measurement,setting,value
Cc1cccc(C(=O)NCc2cc(Cl)cc(Cl)c2)c1 [Compound B08],Herbicidal Activity Barnyard grass,[1],2 (equivalent to 0 to 2.5% of the weed in the blank control area)
same,Herbicidal Activity Piemarker,[2],2 (equivalent to 0 to 2.5% of the weed in the blank control area)
same,Herbicidal Activity Green bristlegrass,[3],2 (equivalent to 0 to 2.5% of the weed in the blank control area)
same,Herbicidal Activity Amaranthus retroflexus,[4],1
same,Herbicidal Activity Digitaria sanguinalis,[5],2 (equivalent to 0 to 2.5% of the weed in the blank control area)
same,Herbicidal Activity Humulus scandens,[6],2 (equivalent to 0 to 2.5% of the weed in the blank control area)
same,Herbicidal Activity Amaranthus retroflexus,[7],1
same,Herbicidal Activity Barnyard grass,[8],1
same,Herbicidal Activity Digitaria sanguinalis,[9],1
same,Herbicidal Activity Humulus scandens,[10],1
same,Herbicidal Activity Piemarker,[11],1
same,Herbicidal Activity Green bristlegrass,[12],2 (equivalent to 0 to 2.5% of the weed in the blank control area)
same,Herbicidal activity 15 days after treatment Broadleaf weed,[13]; 15 days after treatment,2 (equivalent to 0 to 2.5% of the weed in the blank control area)
same,Herbicidal activity 30 days after treatment Broadleaf weed,[13]; 30 days after treatment,1
same,Herbicidal activity 15 days after treatment Cyperaceae,[14]; 15 days after treatment,1
same,Herbicidal activity 30 days after treatment Cyperaceae,[14]; 30 days after treatment,1
same,Herbicidal activity 15 days after treatment Gramineae,[15]; 15 days after treatment,2 (equivalent to 0 to 2.5% of the weed in the blank control area)
same,Herbicidal activity 30 days after treatment Gramineae,[15]; 30 days after treatment,2 (equivalent to 0 to 2.5% of the weed in the blank control area)
same,"Post-emergence weed control effect, Acalypha australis","[16]; 150 g a.i./ha, after treatment",1
same,controlling effect on Acalypha australis,[16]; [27],1
same,"Post-emergence weed control effect, Amaranthus retroflexus",[17]; [28],1
same,controlling effect on Amaranthus retroflexus,[17]; [27],1
same,"Post-emergence weed control effect, Barnyard grass",[18]; [28],1
same,controlling effect on barnyard grass,[18]; [27],1
same,"Post-emergence weed control effect, Chenopodium album","[19]; 150 g a.i./ha, after treatment",1
same,controlling effect on Chenopodium album,[19]; [27],1
same,"Post-emergence weed control effect, Convolvulus arvensis","[20]; 150 g a.i./ha, after treatment",1
same,controlling effect on Convolvulus arvensis,[20]; [27],1
same,"Post-emergence weed control effect, Digitaria sanguinalis","[21]; 150 g a.i./ha, after treatment",1
same,controlling effect on Digitaria sanguinalis,[21]; [27],1
same,"Post-emergence weed control effect, Portulaca oleracea","[22]; 150 g a.i./ha, after treatment",1
same,controlling effect on Portulaca oleracea,[22]; [27],1
same,"Post-emergence weed control effect, Solanum nigrum",[23]; [28],1
same,controlling effect on Solanum nigrum,[23]; [27],1
same,"Post-emergence weed control effect, Goose grass","[24]; 150 g a.i./ha, after treatment",1
same,controlling effect on goosegrass,[24]; [27],1
same,"Post-emergence weed control effect, Green bristlegrass","[25]; 150 g a.i./ha, after treatment",1
same,controlling effect on green bristlegrass,[25]; [27],1
same,"Post-emergence weed control effect, Nutgrass flatsedge","[26]; 150 g a.i./ha, after treatment",1
same,controlling effect on nutgrass flatsedge,[26]; [27],1
